According to patent US20080085881A1, “Stop-and-go oxaliplatin treatment regimens” (priority 2006, published 2008):

Tests used:
Type in all cases: in vivo, patients
[1] = test system: advanced colorectal cancer; assay: Retrospective analysis of OPTIMOX1: effect of oxaliplatin reintroduction on overall survival (Cox model, centers grouped by reintroduction class)
Description: A retrospective analysis was used to evaluate the effect of oxaliplatin reintroduction on overall survival. The percentage of patients with oxaliplatin reintroduction was calculated in each center regardless of treatment arm, number of patients, or whether reintroduction was per protocol. A Cox model was used to analyze the impact of oxaliplatin reintroduction on survival, after adjustment for all baseline covariates, and using random effects to account for the fact that the percentage of patients with oxaliplatin reintroduction was estimated in each center. Centers were grouped by percentage of oxaliplatin reintroduction into 4 reintroduction classes defined according to the percentage of patients with oxaliplatin reintroduction (0, 1-20, 21-40, and >40). The hazard ratio (HR; adjusted for all baseline covariates) was calculated for each reintroduction class, using centers with no reintroduction (0%) as the reference group.

[2] = test system: advanced colorectal cancer; assay: OPTIMOX1 study: FOLFOX4 until progression (arm A) versus stop-and-go FOLFOX7 (arm B); details: OPTIMOX1, previously untreated advanced colorectal cancer
Description: The OPTIMOX1 study examined the effect of oxaliplatin reintroduction in previously untreated patients with advanced colorectal cancer. The details of this study have been recently published by Tournigand et al., J. Clin. Oncol. (January 2006);24:394, and they are incorporated herein by reference. Two different FOLFOX regimens were used in the study: FOLFOX4 and FOLFOX7. The FOLFOX4 regimen comprises oxaliplatin 85 mg/m^2 given as a 2-hour infusion on day 1, leucovorin 200 mg/m^2 given as a 2-hour infusion on days 1 and 2, and 5-FU given on days 1 and 2 as a bolus of 400 mg/m^2 that is followed directly by a 22-hour infusion of 5-FU 600 mg/m^2 on each day. The oxaliplatin infusion on day 1 is given concurrently with leucovorin, and on each day the 5-FU bolus directly follows the 2-hour infusion of leucovorin. FOLFOX7 comprises oxaliplatin 130 mg/m^2 and leucovorin 200 mg/m^2 given concurrently as 2-hour infusions on day 1, followed directly by a 46 hour infusion of 5-FU at 2400 mg/m^2. In some patients, the I-leucovorin isomer was used, but at half the mg/m^2 dosage for dI-leucovorin.
Patients were randomized to either FOLFOX4 every 2 weeks until progression (arm A), or FOLFOX7 for 6 cycles, maintenance with leucovorin-5-FU but without oxaliplatin for 12 […], and reintroduction of FOLFOX7 (arm B). […]

[3] = OPTIMOX1 study: neurotoxicity; details: stopping oxaliplatin after the sixth cycle
Source text: Sensory neurotoxicity can be measured using known techniques and graded using defined criteria. For example, the National Cancer Institute Common Toxicity Criteria (NCI CTC) version 2.0 can be used to grade sensory neuropathy. Using these criteria, an NCI grade of 0 means that there is no change associated with the treatment. NCI grade 1 indicates the loss of deep tendon reflexes or paresthesia (including tingling) not interfering with function. […] NCI Grade 3 indicates sensory loss or paresthesia that interferes with activities of daily living. NCI Grade 4 is reserved for permanent sensory loss that interferes with function.
The OPTIMOX1 study examined the effect of oxaliplatin reintroduction in previously untreated patients with advanced colorectal cancer. The details of this study have been recently published by Tournigand et al., J. Clin. Oncol. (January 2006);24:394, and they are incorporated herein by reference. Two different FOLFOX regimens were used in the study: FOLFOX4 and FOLFOX7. The FOLFOX4 regimen comprises oxaliplatin 85 mg/m^2 given as a 2-hour infusion on day 1, leucovorin 200 mg/m^2 given as a 2-hour infusion on days 1 and 2, and 5-FU given on days 1 and 2 as a bolus of 400 mg/m^2 that is followed directly by a 22-hour infusion of 5-FU 600 mg/m^2 on each day. […]

**Q.** For `O=C1[O][Pt]2([NH][C@@H]3CCCC[C@H]3[NH]2)[O]C1=O` [oxaliplatin], which Median survival ([1]; >40% reintroduction class) is on record?
**A.** Its Median survival is 23 months.

**Q.** And the “impact of percentage of patients with oxaliplatin reintroduction on survival” value ([1]; after adjustment for all other factors, p<0.001)?
**A.** Its value is “highly significant impact on survival”.

**Q.** What about the “impact of reintroduction class on survival” value ([1]; after adjustment for all other factors, p=0.02) of the same compound?
**A.** Its value is “significant impact on survival”.

**Q.** And the “Adjusted survival hazard ratio (95% C.I.)” value ([1]; centers with 0% patients with oxaliplatin reintroduction (reference group))?
**A.** The value was 1.00 (reference).

**Q.** What about the “Adjusted survival hazard ratio (95% C.I.)” value ([1]; centers with 1–20% patients with oxaliplatin reintroduction, versus 0% reference) of the same compound?
**A.** Its value is 0.91 (0.56–1.48).

**Q.** And the “Adjusted survival hazard ratio (95% C.I.)” value ([1]; centers with 21–40% patients with oxaliplatin reintroduction, versus 0% reference)?
**A.** Its value is 0.78 (0.50–1.21).

**Q.** And the “Adjusted survival hazard ratio (95% C.I.)” value ([1]; centers with >40% patients with oxaliplatin reintroduction, versus 0% reference)?
**A.** The value was 0.59 (0.38–0.91).

**Q.** And the Median survival ([1]; reference group (0% reintroduction))?
**A.** The Median survival was 15 months.

**Q.** And the “prognostic value of oxaliplatin reintroduction for overall survival” value [2]?
**A.** Its value is “independent prognostic factor for improved overall survival”.

**Q.** And the “risk of grade 3 or 4 neurotoxicity” value [3]?
**A.** The value was “reduced risk”.
